This passage reports IC50 results from patent US4820834A, “Benzodiazepine analogs” (priority 1987, dated 1989).

Molecules are shown by their SMILES. Like-named read-outs stand apart in the source and are kept apart here.

In experiment [1] the target is T1, CCK receptor (brain, cerebral cortex) (Cavia porcellus, UniProt H0VZC5).
T1 construct: Cerebral cortex was dissected and used as a receptor source; from tissue; host or cells: guinea pig cerebral cortex membranes (male Hartley)
T1 sequence (H0VZC5 1-426): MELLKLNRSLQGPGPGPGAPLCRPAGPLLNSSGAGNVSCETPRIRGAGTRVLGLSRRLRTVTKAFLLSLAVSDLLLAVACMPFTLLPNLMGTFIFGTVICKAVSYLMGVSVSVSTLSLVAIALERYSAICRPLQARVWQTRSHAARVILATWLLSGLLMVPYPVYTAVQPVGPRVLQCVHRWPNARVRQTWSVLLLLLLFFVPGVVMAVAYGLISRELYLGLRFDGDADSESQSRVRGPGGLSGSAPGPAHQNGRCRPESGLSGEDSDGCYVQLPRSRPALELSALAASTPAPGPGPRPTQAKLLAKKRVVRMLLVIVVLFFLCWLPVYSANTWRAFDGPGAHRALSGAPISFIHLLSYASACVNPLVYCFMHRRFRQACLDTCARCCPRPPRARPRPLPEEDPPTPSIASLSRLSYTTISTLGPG
Put plainly: biochemical. In kind it is binding, Male Hartley guinea pigs. The method in brief: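 Binding of [radiolabeled] CCK-33 measured by gamma counting of centrifuged pellets after 2 h at 25°C. Membranes came from guinea pig brain cortex, suspended in 10 mM HEPES, 5 mM MgCl2, 1 mM EGTA, 0.25 mg/ml bacitracin, 0.4% BSA.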

The target of the next experiment is T2, CCK receptor (pancreas) (Rattus norvegicus, UniProt P30551).
T2 construct: The whole pancreas was dissected free of fat tissue and was homogenized; from tissue; host or cells: rat pancreas membranes (Sprague-Dawley)
T2 sequence (P30551 1-444): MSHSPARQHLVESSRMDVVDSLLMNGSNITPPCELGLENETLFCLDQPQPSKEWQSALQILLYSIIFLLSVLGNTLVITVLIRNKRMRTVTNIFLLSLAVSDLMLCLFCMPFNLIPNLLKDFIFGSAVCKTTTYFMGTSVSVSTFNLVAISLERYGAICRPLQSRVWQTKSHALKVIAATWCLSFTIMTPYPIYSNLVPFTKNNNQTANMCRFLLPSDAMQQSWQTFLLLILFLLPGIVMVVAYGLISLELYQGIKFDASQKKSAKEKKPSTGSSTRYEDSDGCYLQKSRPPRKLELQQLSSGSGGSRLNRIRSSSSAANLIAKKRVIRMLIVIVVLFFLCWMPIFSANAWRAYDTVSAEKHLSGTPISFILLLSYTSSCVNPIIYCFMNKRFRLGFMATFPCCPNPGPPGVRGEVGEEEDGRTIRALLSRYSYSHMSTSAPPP
Briefly: CCK Receptor Binding (Pancreas): inhibition of ^125 I-CCK-33 binding. The arrangement: species or system Male Sprague-Dawley rats. In a few lines: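 Bound ^125I-CCK-33 was counted in pellets after a 30 min, 37° C incubation followed by centrifugation. Membranes came from male Sprague-Dawley rat pancreas, assayed in Tris HCl pH 7.7 containing DTT, bacitracin, PMSF and o-phenanthroline. For Scatchard analysis, tracer was diluted with rising unlabelled CCK-33.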

The target in experiment [2] is T3, Gastrin receptor (gastric glands) (Cavia porcellus, UniProt H0VZC5).
T3 construct: The washed guinea pig gastric glands prepared as above were resuspended; from tissue; host or cells: guinea pig gastric mucosal glands (male Hartley)
T3 sequence (H0VZC5 1-426): T1 sequence (H0VZC5 1-426)
Briefly: Gastrin Receptor Binding in Guinea Pig Gastric Glands. The arrangement: species or system guinea pig (male Hartley).

The mark [3] stands for this setting: IC50 ^125 I-CCK Brain, guinea pig cerebral cortex, ^125 I-CCK-33, 25° C., 2 hours.
[4] abbreviates: IC50 ^125 I-CCK Pancreas, rat pancreas membranes, ^125 I-CCK-33, 37° C., 30 minutes.
Where [5] appears, read: IC50 ^125 I-Gastrin Gastric Glands, 25° C., 30 minutes.
Setting [6] is: rat pancreas membranes, ^125 I-CCK-33, 37° C., 30 minutes; read-out: IC50 ^125 I-CCK Pancreas.
[7] abbreviates: ^125 I-gastrin, 25° C., 30 minutes, read-out: IC50 ^125 I-Gastrin Gastric Glands.
The mark [8] stands for this setting: guinea pig cerebral cortex, ^125 I-CCK-33, 25° C., 2 hours, read-out: IC50 ^125 I-CCK Brain.
Where [9] appears, read: read-out: IC50 ^125 I-CCK Brain, guinea pig cerebral cortex, ^125 I-CCK-33, 25° C., 2 hours.
The mark [10] stands for this setting: read-out: IC50 ^125 I-CCK Pancreas; rat pancreas membranes, ^125 I-CCK-33, 37° C., 30 minutes.
Setting [11] is: read-out: IC50 ^125 I-Gastrin Gastric Glands, 25° C., 30 minutes.

The term IC50 denotes the concentration that inhibits the measured activity by half. Consider `O=C(OC1N=C(c2ccccc2F)c2ccccc2NC1=O)c1ccc(Cl)cc1` (racemic) [Example 179, 1,3-Dihydro-5-(2-fluorophenyl)-3(RS)-(4-chlorobenzoyl)oxy-2H-1,4-benzodiazepin-2-one], for which the IC50 stood at 3.6 µM in experiment [1] (setting [3]), 4.4 µM at CCK receptor (pancreas) (setting [4]) and 18 µM in experiment [2] (setting [5]).

On to `O=C(NC1N=C(c2ccccc2F)c2ccccc2NC1=S)c1ccc(Cl)cc1` (racemic) [Example 180, 1,3-Dihydro-5-(2-fluorophenyl)-3-(RS)-(4-chlorophenyl)carbonylamino-2H-1,4-benzodiazepin-2-thione], for which the 50% inhibitory concentration (IC50) in experiment [1] (setting [3]) was above 100 µM; at CCK receptor (pancreas) (setting [4]), 0.016 µM; in experiment [2] (setting [5]), 11 µM.

With `O=C(NC1N=C(c2ccccc2F)c2ccccc2NC1=S)c1cc2ccccc2[nH]1` (racemic) [Example 181, 1,3-Dihydro-5-(2-fluorophenyl)-3-(RS)-(2-indole) carbonylamino-2H-1,4-benzodiazepin-2-thione], the IC50 in experiment [1] (setting [3]) is 9.3 µM; on CCK receptor (pancreas) (setting [4]), 0.002 µM; in experiment [2] (setting [5]), 4.4 µM.

For `CC(C)(C)OC(=O)N[C@H](Cc1c[nH]c2ccccc12)C(=O)Nc1ccccc1C(=O)c1ccccc1F` [Example 1, 2-N-(Nα-Boc-D-tryptophanyl)amino-2'-fluorobenzophenone], the values for the IC50 (in experiment [1] (read-out: IC50 ^125 I-CCK Brain); on CCK receptor (pancreas) (setting [6]); in experiment [2] (setting [7])) were above 100 µM, 67 µM and 167 µM, respectively.

Turning to `CSC1=N[C@@H](Cc2cn(C)c3ccccc23)C(=O)N(C)c2ccccc21` [Example 7, 1,3-Dihydro-3(S)-[3'-(1'-methylindolyl)methyl]-1-methyl-5-methylthio-2H-1,4-benzodiazepin-2-one], the IC50 was 100 µM in experiment [1] (setting [8]), above 100 µM at CCK receptor (pancreas) (setting [6]) and above 100 µM in experiment [2] (setting [7]).

With `CSC1=N[C@@H](Cc2c[nH]c3ccccc23)C(=O)N(C)c2ccccc21` [Example 8, 1,3-Dihydro-3(S)-(3'-indolyl)methyl-1-methyl-5-methylthio-2H-1,4-benzodiazepin-2-one], the IC50 in experiment [1] (setting [8]) stood at 100 µM; on CCK receptor (pancreas) (setting [6]), 100 µM; in experiment [2] (setting [7]), 227 µM.

Consider `O=C1Nc2ccccc2C(c2ccccc2F)=N[C@@H]1CC1CNc2ccccc21` (stereo partly drawn) [Example 9], for which the results for the IC50 (in experiment [1] (setting [3]); on CCK receptor (pancreas) (setting [4]); in experiment [2] (setting [7])) were 48 µM, 10.7 µM and 78 µM, respectively.

For the molecule `O=C1Nc2ccccc2C(c2ccccc2F)=N[C@@H]1CC1CNc2ccccc21` (stereo partly drawn) [Example 10], the IC50 in experiment [1] (setting [9]) was above 100 µM; on CCK receptor (pancreas) (setting [10]), 16.7 µM; in experiment [2] (setting [7]) it was 47 µM.

For the molecule `CC(C)C[C@H]1N=C(c2ccccc2)c2cc(Cl)ccc2NC1=O` [Example 14, 7-Chloro-1,3-dihydro-3(R)-(2-methyl-1-propyl)-5-phenyl-2H-1,4-benzodiazepin-2-one], the values for the IC50 (in experiment [1] (setting [3]); on CCK receptor (pancreas) (setting [4]); in experiment [2] (setting [5])) were 60 µM, 42 µM and 12 µM, respectively.

Regarding `O=C1Nc2ccc(Cl)cc2C(c2ccccc2)=N[C@@H]1COCc1ccccc1` [Example 15, 3(R)-Benzyloxymethyl-7-chloro-1,3-dihydro-5-phenyl-2H-1,4-benzodiazepin-2-one], the IC50 in experiment [1] (setting [3]) worked out at 80 µM; at CCK receptor (pancreas) (setting [4]) it was 60 µM; in experiment [2] (setting [5]), 38 µM.

Take `O=C(NN=C1Nc2ccccc2C(c2ccccc2F)=N[C@@H]1Cc1c[nH]c2ccccc12)c1ccsc1` [Example 35, 1,3-Dihydro-5-(2-fluorophenyl)-3(R)-(3'-indolyl)methyl-2H-1,4-benzodiazepin-2-[N'-(3-thienoyl)]hydrazide]: the IC50 in experiment [1] (setting [3]) is 15 µM; at CCK receptor (pancreas) (setting [4]), 10 µM; in experiment [2] (setting [5]), above 100 µM.

As to `CCN1C(=O)[C@@H](Cc2c[nH]c3ccccc23)N=C(c2ccccc2F)c2ccccc21` [Example 36, 1,3-Dihydro-1-ethyl-5-(2-fluorophenyl)-3(R)-(3'-indolyl)methyl-2H-1,4-benzodiazepin-2-one], the results for the IC50 (in experiment [1] (setting [3]); on CCK receptor (pancreas) (setting [4]); in experiment [2] (setting [5])) were 30 µM, 0.3 µM and above 100 µM, respectively.

As for `CC(C)CCN1C(=O)[C@@H](Cc2c[nH]c3ccccc23)N=C(c2ccccc2F)c2ccccc21` [Example 39, 1,3-Dihydro-5-(2-fluorophenyl)-3(R)-(3'-indolyl) methyl-1-(3-methylbutyl)-2H-1,4-benzodiazepine-2-one], the IC50 in experiment [1] (setting [3]) is 30 µM; on CCK receptor (pancreas) (setting [4]), 100 µM; in experiment [2] (setting [5]), 23 µM.

Turning to `O=C(O)CN1C(=O)[C@@H](Cc2c[nH]c3ccccc23)N=C(c2ccccc2F)c2ccccc21` [Example 43], the IC50 is 23 µM in experiment [1] (setting [9]), 0.3 µM at CCK receptor (pancreas) (setting [10]) and 5 µM in experiment [2] (setting [11]).

For the molecule `CN1C(=O)[C@@H](Cc2cn(C(=O)c3ccc(Cl)cc3)c3ccccc23)N=C(c2ccccc2F)c2ccccc21` [Example 45, 1,3-Dihydro-5-(2-fluorophenyl)-3(R)-[3'-(1'-p-chlorobenzyloylindolyl)methyl]-1-methyl-2H-1,4-benzodiazepin-2-one], the IC50 in experiment [1] (setting [9]) was above 100 µM; on CCK receptor (pancreas) (setting [10]) it was 10.6 µM; in experiment [2] (setting [11]), above 1000 µM.

On to `O=C1Nc2ccc(Cl)cc2C(c2ccccc2)=N[C@@H]1Cc1cn(-c2ccc([N+](=O)[O-])cc2[N+](=O)[O-])cn1` [Example 55, 7-Chloro-1,3-dihydro-3(R)-[(3'-(2,4-dinitrophenyl)imidazol-5'-yl)-methyl]-5-phenyl-2H-1,4-benzodiazepin-2-one], for which the IC50 in experiment [1] (setting [8]) was 38.6 µM; at CCK receptor (pancreas) (setting [4]) it was 7.6 µM; in experiment [2] (setting [7]), 76 µM.

As to `NCCCC[C@H]1N=C(c2ccccc2F)c2ccccc2NC1=O` [Example 65, 1,3-Dihydro-5-(2'-fluorophenyl)-3(R)-(4-amino)butyl-2H-1,4-benzodiazepin-2-one], the figures for the IC50 (in experiment [1] (setting [3]); on CCK receptor (pancreas) (setting [4]); in experiment [2] (setting [5])) were above 100 µM, above 100 µM and above 1000 µM, respectively.

As for `CN1C(=O)[C@@H](N)N=C(c2ccccc2)c2ccccc21` [Example 85a, 3(S)-(-)-3-Amino-1,3-dihydro-1-methyl-5-phenyl-2H-1,4-benzodiazepin-2-one], the IC50 is above 100 µM in experiment [1] (setting [3]), 100 µM at CCK receptor (pancreas) (setting [6]) and above 100 µM in experiment [2] (setting [5]).

For `CN1C(=O)[C@@H](NC(=O)c2cc3ccccc3[nH]2)N=C(c2ccccc2F)c2ccccc21` [Example 88, 3(S)-(+)-1,3-Dihydro-5-(2-fluorophenyl)-3-(2-indole-carbonylamino)-1-methyl-2H-1,4-benzodiazepin-2-one], the IC50 is 0.3 µM in experiment [1] (setting [3]), 0.0006 µM at CCK receptor (pancreas) (setting [6]) and 0.027 µM in experiment [2] (setting [7]).

Consider `CN1C(=O)[C@H](NC(=O)c2cc3ccccc3[nH]2)N=C(c2ccccc2F)c2ccccc21` [Example 89, 3(R)-(-)-1,3-Dihydro-5-(2-fluorophenyl)-3-(2-indole-carbonylamino)-1-methyl-2H-1,4-benzodiazepin-2-one], for which the IC50 is 1.1 µM in experiment [1] (setting [3]), 0.019 µM on CCK receptor (pancreas) (setting [6]) and 0.24 µM in experiment [2] (setting [7]).

For `CN1C(=O)[C@H](NC(=O)c2ccc(Cl)cc2)N=C(c2ccccc2F)c2ccccc21` [Example 90, 3(R)-(-)-1,3-Dihydro-3-(4-chlorobenzoylamino)-5-(2-fluorophenyl)-1-methyl-2H-1,4-benzodiazepin-2-one], the IC50 in experiment [1] (setting [3]) stood at 11 µM; at CCK receptor (pancreas) (setting [6]) it was 0.049 µM; in experiment [2] (setting [7]), 5.2 µM.
